Laboratory results: US5817640A (Gensia Pharmaceuticals, priority 1995, dated 1998)
Entries after “also recorded” stand apart in the source; their conditions may differ.

Experiments:
Format in all cases: in vivo, human
[1] = Safety assessment / adverse events in CABG patients (Phase 2); settings: for Patients with one or more adverse events: placebo 29 of 37
Procedure: In addition to the hemodynamic monitoring described above the following tests were performed at screening, on the first post-operative day and at discharge:
4. Any adverse events were recorded throughout by the investigator, who assessed their severity and the relationship of these adverse experiences to the treatment.
11. Adverse Effects. The incidence, severity and drug-relatedness of any adverse effects were tabulated by treatment group by decreasing incidence of such effects in the high dose group. Statistical analysis was not performed.

[2] = tested on: patients undergoing coronary artery bypass graft (CABG) surgery; test: Incidence of clinical outcomes, Phase 3 CABG trial; settings: for Incidence of myocardial infarction (ECG and CK-MB): placebo 4.7%; for Myocardial infarction (ECG and CK-MB), number of patients: placebo 10 of 211; for Cardiac death, number of patients: placebo 3 of 212; for Incidence of congestive heart failure: placebo 3.8%; for Life-threatening dysrhythmia, number of patients: placebo 4 of 212; for Incidence of cerebrovascular accident: placebo 4.2%; for Congestive heart failure, number of patients: placebo 8 of 212; for Cerebrovascular accident, number of patients: placebo 9 of 212; for Combined clinical outcomes, number of patients: placebo 29 of 212; for Incidence of cardiac death / Incidence of life-threatening dysrhythmia / Incidence of combined clinical outcomes: placebo […]
[3] = tested on: patients undergoing coronary artery bypass graft (CABG) surgery; test: Ejection fraction and hemodynamics (Phase 2)
Procedure: During surgery, anesthesia was maintained by continuous infusion of fentanyl and midazolam. Routine clinical parameters were recorded using standard operating room monitoring equipment. Continuous 2-lead Holter ECG and TEE data were recorded. Standard surgical procedures (e.g., aorta cross-clamping, crystalloid cardioplegia, cardio-pulmonary bypass, hypothermia) were used. Anastomoses were constructed, aorta cross-clamp removed and patients were discontinued from bypass when body temperature was 37° C. The quality of anastomosis was judged by the surgeon. Difficulty in weaning from bypass was judged by need for one or more of the following: pacemaker, return to bypass, balloon pump or vasopressor administration. Hemodynamic measurements, including heart rate, arterial blood pressure, pulmonary capillary wedge pressure and cardiac output, were recorded before sternotomy, 15 and 30 min after bypass and upon chest closure. Radial artery and pulmonary artery pressures, myocardial and whole body temperature, O2 saturation, end-tidal CO2 and arterial blood gases were measured, and ECG recordings were obtained as clinically indicated. Hemodynamic variables (blood pressure, heart rate, pulmonary capillary wedge pressure) were controlled within 20% of baseline using prescribed regimens.
During the post-operative period through the first post-operative day, morphine and midazolam were used for sedation and analgesia. The cardiovascular medications required were recorded. During this period, continuous ECG monitoring (Holter) was performed for up to 48 hours. Hemodynamic measurements (pulmonary artery pressures and cardiac output) were obtained at 2, 4, 8 and 12 hours (in some cases at 24 and 48 hours) and also whenever clinically indicated.
A twelve-lead ECG was obtained on arrival in the intensive care unit and during post-operative days 1, 2, 3 and at hospital discharge. Creatinine phosphokinase MB band (CK-MB) was obtained every 8 hours for 48 hours and when indicated. Radio-nuclide ventriculography for ejection fraction and wall motion score was done about 14 days post-operation and as close to hospital discharge as possible. Other tests and measurements (e.g., chest x-ray, pulmonary artery wedge pressure (PCWP) were performed when clinically indicated for diagnosis or evaluation of myocardial infarction, or congestive heart failure. Timing and dose of all cardiovascular medications within 48 hours after surgery were recorded. The total dose of all analgesics during the 24-hour post-operative period was recorded. Fluid intake and output (e.g., blood replacement and urine output) were recorded for 48 hours. The type and duration of inotropic support and antiarrhythmic intervention required were recorded through 24 hours after surgery. Two-channel Holter recordings were obtained during 3 periods, the eight hours prior to intubation, from intubation through the end of surgery, and for an additional 24-48 hours after surgery.
9. Election Fraction. Pre-operative and post-operative ejection fractions were measured using different methodologies; therefore, changes could not be analyzed statistically. Group mean injection fractions and pre- and post-CABG are presented and apparent differences between groups were described.
Results for ejection fraction, measured on all patients pre-operatively (by angiography) and at the time of discharge from the intensive care unit (by radionuclide ventriculography) are given in Table 10 below.

[4] = high dose 0.1 mg/kg/min, n=203, p<0.05
[5] = high dose 0.1 mg/kg/min, n=207, NS
[6] = high dose 0.1 mg/kg/min, n=207, p<0.05

NC(=O)c1ncn([C@@H]2O[C@H](CO)[C@@H](O)[C@H]2O)c1N [AICA riboside, 5-amino-1-β-D-ribofuranosyl-imidazole-4-carboxamide]
Patients with one or more adverse events ([1]; 0.05 mg/kg/min): 28/41 | Patients with one or more adverse events ([1]; 0.1 mg/kg/min): 30/35 | Adverse events in individual patient ([1]; 0.38 mg/kg/min, patient A5): no events other than S-T segment elevation on the ECG post-bypass | Frequency of adverse events vs placebo ([1]; drug-treated patients, 0.05 and 0.1 mg/kg/min): no evidence that any of these events occurred more frequently in drug-treated patients compared with placebo | Tolerability ([1]; first patients, 0.19 or 0.38 mg/kg/min): well tolerated | Serious adverse experiences ([1]; first six patients, 0.19 or 0.38 mg/kg/min): no serious adverse experiences | Serum/urinary uric acid and crystalluria ([1]; five drug-treated patients, 0.19 or 0.38 mg/kg/min): significant hyperuricemia and elevated urinary uric acid levels with crystalluria | Urine coloration ([1]; five patients at 0.19 or 0.38 mg/kg/min, patient A14 at 0.05 mg/kg/min): same green coloration; also recorded: clear, green coloration | Incidence of myocardial infarction (ECG and CK-MB) [2, 4]: 1.5% | Myocardial infarction (ECG and CK-MB), number of patients [2, 4]: 3 patients | Cardiac death, number of patients [2, 5]: 0 patients | Incidence of congestive heart failure [2, 5]: 2.9% | Life-threatening dysrhythmia, number of patients [2, 5]: 3 patients | Incidence of cerebrovascular accident [2, 6]: 0.5% | Congestive heart failure, number of patients [2, 5]: 6 patients | Cerebrovascular accident, number of patients [2, 6]: 1 patients | Combined clinical outcomes, number of patients [2, 6]: 11 patients | Incidence of cardiac death [2, 5]: 0% | Incidence of life-threatening dysrhythmia [2, 5]: 1.4% | Incidence of combined clinical outcomes [2, 6]: 5.3% | Decrease in incidence of MI vs placebo ([2]; high dose, p<0.05): 68% | Decrease in incidence of cerebrovascular accident vs placebo ([2]; high dose, p<0.05): 88% | Reduction in incidence of combined outcomes vs placebo ([2]; high dose, p<0.05): 61% | Incidence of all deaths ([2]; high dose, placebo 3.3%): 0.5% | Incidence of myocardial infarction determined by either ECG or CK-MB ([2]; high dose, placebo 24.1%): 20.8% | Combined outcome efficacy of low dose ([2]; low dose 0.05 mg/kg/min vs placebo): no statistically significant efficacy | Incidence of myocardial infarction (ECG and CK-MB) ([2]; low dose 0.05 mg/kg/min, n=205): 4.4% | Myocardial infarction (ECG and CK-MB), number of patients ([2]; low dose 0.05 mg/kg/min, n=205): 9 patients | Cardiac death, number of patients ([2]; low dose 0.05 mg/kg/min, n=214): 5 patients | Incidence of congestive heart failure ([2]; low dose 0.05 mg/kg/min, n=214): 2.8% | Life-threatening dysrhythmia, number of patients ([2]; low dose 0.05 mg/kg/min, n=214): 9 patients | Incidence of cerebrovascular accident ([2]; low dose 0.05 mg/kg/min, n=214): 0.9% | Congestive heart failure, number of patients ([2]; low dose 0.05 mg/kg/min, n=214): 6 patients | Cerebrovascular accident, number of patients ([2]; low dose 0.05 mg/kg/min, n=214): 2 patients | Combined clinical outcomes, number of patients ([2]; low dose 0.05 mg/kg/min, n=214): 23 patients | Incidence of cardiac death ([2]; low dose 0.05 mg/kg/min, n=214): 2.3% | Incidence of combined clinical outcomes ([2]; low dose 0.05 mg/kg/min, n=214): 10.7% | Incidence of life-threatening dysrhythmia ([2]; low dose 0.05 mg/kg/min, n=214): 4.2% | Ejection fraction ([3]; 0.05 mg/kg/min group, pre-bypass (pre-operative, LV angiography), placebo 57.6 ± 2.0, p=0.54): 55.0 ± 2.3% | Ejection fraction ([3]; 0.05 mg/kg/min, post-bypass (radionuclide ventriculography), placebo 56.5 ± 2.3, p=0.28): 59.0 ± 2.0% | Ejection fraction ([3]; 0.10 mg/kg/min group, pre-bypass (pre-operative, LV angiography), placebo 57.6 ± 2.0, p=0.54): 58.4 ± 2.4% | Ejection fraction ([3]; 0.10 mg/kg/min, post-bypass (radionuclide ventriculography), placebo 56.5 ± 2.3, p=0.28): 61.3 ± 1.7% | Effect on heart rate and blood pressure ([3]; CABG surgery): no effects of treatment with AICA riboside were seen on these parameters | Ejection fraction vs placebo ([3]; post-operative, not statistically significant): higher mean ejection fractions post-bypass than the placebo group; also recorded: trend towards higher ejection fraction in the high dose AICA riboside group
